For series [1], the system named is Zika virus. Kind of series: Antiviral activity against Zika virus infected in African green monkey Vero cells assessed as reduction in viral replication incubated for 24 hrs. The format is functional, organism-based.
For a further series, the system named is dengue virus type 2. Kind of series: Antiviral activity against DENV-2 RNA-dependent RNA polymerase infected in human Huh-7 cells assessed as reduction in viral replication by RT-PCR analysis. Type of series: functional, organism-based.
The test system of another series is dengue virus type 3. As to the kind of experiment: Antiviral activity against DENV-3 infected in African green monkey Vero E6 cells. The following applies: Vero C1008. Type of series: functional, organism-based.
The next series deals with dengue virus type 1. As to the kind of experiment: Antiviral activity against DENV-1 infected in African green monkey Vero E6 cells. The format is functional, organism-based. Conditions: Vero C1008.
For series [2], the system named is Zika virus. Kind of series: Antiviral activity against Zika virus infected in African green monkey Vero E6 cells. Type of series: functional, organism-based. The following applies: Vero C1008.
Series [3] concerns dengue virus type 4. Kind of series: Antiviral activity against DENV-4 infected in African green monkey Vero E6 cells. Type of series: functional, organism-based. Conditions: Vero C1008.
The next series deals with Vero. Kind of series: Inhibition of DENV-2 RNA-dependent RNA polymerase in African green monkey Vero cells measured for 24 to 72 hrs relative to control. The format is cell-based. The following applies: dengue virus type 2, time 24-72 hrs, dose or concentration not given here.
Series [4] has as its system Zika virus. Kind of series: Antiviral activity against Zika virus NS5/RNA-dependent RNA polymerase. The format is functional, organism-based.
The nature of series [5]: Cytotoxicity against African green monkey Vero cells. The format is toxicity, cell-based. The following applies: chlorocebus sabaeus.
Series [6] can be described thus: Inhibition of DENV RNA-dependent RNA polymerase activity. Further details: species or system Dengue virus.
Series [7] has as its target T1, NS5 (Zika virus, UniProt A0A143MHK7). Kind of series: Inhibition of Zika virus RNA-dependent RNA polymerase activity.
A short description of series [8]: Cytotoxicity against hamster BHK-21 cells. Type of series: toxicity, cell-based, Mesocricetus auratus.
Series [9] is described as follows: Inhibition of DENV RNA-dependent RNA polymerase in hamster BHK-21 cells. Type of series: cell-based, Dengue virus.
The target in series [10] is Nonstructural protein 5 (Dengue virus) (UniProt V5TFZ2). Kind of series: Binding affinity to DENV-3 NS5 assessed as gibbs free energy change. Conditions: dengue virus type 3.
Series [11] is described as follows: Binding affinity to DENV-3 RNA-dependent RNA polymerase assessed as dissociation constant incubated for 40 sec by surface plasmon resonance analysis. Further details: species or system dengue virus type 3.
Series [12] has as its system dengue virus type 4. As to the kind of experiment: Binding affinity to DENV-4 RNA-dependent RNA polymerase assessed as change in enthalpy by ITC analysis. (In general: Isothermal titration calorimetry measures the heat released or taken up as one component is titrated into another.)
The target of series [13] is T2, Nonstructural protein 5 (Dengue virus, UniProt V5TFZ2). Kind of series: Inhibition of DENV-4 NS5. Further details: species or system dengue virus type 4.
The nature of series [14]: Inhibition of DENV-3 RNA-dependent RNA polymerase. Also on record: species or system dengue virus type 3.
A further series addresses Genome polyprotein (dengue virus type 2, UniProt P29990). As to the kind of experiment: Inhibition of DENV-2 DENV2 NS2B-NS3.
For series [15], the target named is T2, Nonstructural protein 5. As to the kind of experiment: Inhibition of DENV NS5/RNA-dependent RNA polymerase.
Series [16] concerns the target T2, Nonstructural protein 5. As to the kind of experiment: Inhibition of full length His-tagged DENV-2 NS5 incubated for 1 hr. Also on record: species or system dengue virus type 2.
Series [17] deals with T2, Nonstructural protein 5. As to the kind of experiment: Binding affinity to full length His-tagged DENV-2 NS5 assessed as dissociation constant. Further details: species or system dengue virus type 2.
Series [18] addresses T1, NS5. As to the kind of experiment: Inhibition of Zika virus wild type RNA-dependent RNA polymerase using ATP as substrate.
Series [19] concerns Zika virus. As to the kind of experiment: Antiviral activity against Zika virus SMGC-1 infected in human Huh-7 cells assessed as reduction in viral titer. Type of series: functional, organism-based. Conditions: SMGC-1, Huh-7.

pEC50, pIC50, pKd: −log10 of the molar value.

T1 sequence (A0A143MHK7 whole entry): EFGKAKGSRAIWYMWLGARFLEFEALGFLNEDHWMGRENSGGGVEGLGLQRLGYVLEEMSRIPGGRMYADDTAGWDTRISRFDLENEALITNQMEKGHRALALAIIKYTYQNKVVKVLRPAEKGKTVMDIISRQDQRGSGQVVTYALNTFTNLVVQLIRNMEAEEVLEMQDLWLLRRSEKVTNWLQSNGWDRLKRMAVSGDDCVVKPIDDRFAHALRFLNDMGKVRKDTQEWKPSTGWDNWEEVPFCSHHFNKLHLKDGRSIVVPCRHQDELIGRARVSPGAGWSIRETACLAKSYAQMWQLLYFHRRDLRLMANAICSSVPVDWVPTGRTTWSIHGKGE
Genome polyprotein, sequence (P29990 1346-1475 limits assumed): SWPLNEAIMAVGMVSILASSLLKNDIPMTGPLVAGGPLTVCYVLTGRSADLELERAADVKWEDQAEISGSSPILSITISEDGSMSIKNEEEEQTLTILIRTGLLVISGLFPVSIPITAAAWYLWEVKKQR
Genome polyprotein, sequence (P29990 1476-2093 limits assumed): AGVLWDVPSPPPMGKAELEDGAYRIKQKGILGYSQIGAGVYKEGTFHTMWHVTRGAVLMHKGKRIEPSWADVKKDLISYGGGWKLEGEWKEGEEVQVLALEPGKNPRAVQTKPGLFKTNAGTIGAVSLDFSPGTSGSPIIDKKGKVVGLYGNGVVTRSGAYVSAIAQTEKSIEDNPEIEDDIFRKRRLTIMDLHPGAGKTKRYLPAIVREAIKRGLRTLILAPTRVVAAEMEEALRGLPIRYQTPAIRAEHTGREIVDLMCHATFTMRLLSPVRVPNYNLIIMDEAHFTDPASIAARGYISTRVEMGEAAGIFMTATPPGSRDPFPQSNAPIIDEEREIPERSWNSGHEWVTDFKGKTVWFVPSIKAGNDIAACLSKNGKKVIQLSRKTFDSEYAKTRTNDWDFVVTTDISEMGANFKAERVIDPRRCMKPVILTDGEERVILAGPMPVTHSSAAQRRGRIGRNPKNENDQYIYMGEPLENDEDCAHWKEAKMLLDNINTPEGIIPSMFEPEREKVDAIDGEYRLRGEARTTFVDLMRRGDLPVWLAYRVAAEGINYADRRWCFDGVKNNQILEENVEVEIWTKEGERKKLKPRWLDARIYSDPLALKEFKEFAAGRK

One may read the pEC50 as the EC50 on a negative log10 scale, so that one unit is a factor of ten. Regarding `O=C(O)CCNC(=O)c1cc(-c2ccccc2)c(=O)n2c1sc1ccc(C3CCCCC3)cc12`, the pEC50 with Zika virus [1] was 6.00; in the series on dengue virus type 2 it was 5.46.

As for `COc1ccc(-c2cc(C(=O)N[C@@H](Cc3ccc(O)cc3)C(=O)O)c3sc4ccc(OC5CCCCC5)cc4n3c2=O)cc1F`, the pEC50 with dengue virus type 3 was 5.46; with dengue virus type 1 it was 5.29; with Zika virus [2], 4.97; in the series with dengue virus type 4 [3], 5.54. As usually defined, the inhibition is the percentage by which the read-out fell short of the control. `Cc1cn([C@H]2C=C[C@@H](CO)O2)c(=O)[nH]c1=O`: in the series on Vero, the inhibition worked out at 11%.

On to `CC(C)[C@H](N)C(=O)OCC(CO)OCn1cnc2c(=O)[nH]c(N)nc21` (stereo partly drawn), for which, in the series with Vero, the inhibition is 10%. What is called CC50 is the concentration giving 50% cytotoxicity. On to `O[C@H]1[C@H]2c3cc4c(cc3CN3CCC(=C[C@@H]1O)[C@H]23)OCO4` [LYCORINE], for which the pEC50 in the series with Zika virus [4] was 6.41. This molecule had a CC50 in [5] of 21000 nM.

In general, pIC50 refers to the negative decadic logarithm of the IC50, by convention in mol/L. As for `CCC(CC)COC(=O)[C@H](C)N[P@](=O)(OC[C@H]1O[C@@](C#N)(c2ccc3c(N)ncnn23)[C@H](O)[C@@H]1O)Oc1ccccc1`, the pIC50 was 5.85 in series [6] and 5.87 at NS5 [7].

`C#Cc1c(C#N)ncn1[C@@H]1O[C@H](CO)[C@@H](O)[C@H]1O`: the CC50 in series [8] came out at 3990 nM. The pIC50 in series [9] was 6.26. `C[C@@]1(O)[C@H](O)[C@@H](COP(=O)(O)OP(=O)(O)OP(=O)(O)O)O[C@H]1n1ccc2c(N)ncnc21` had a pIC50 against NS5 [7] of 5.05. Regarding `O=C(Nc1nc(-c2cccc3ccccc23)n[nH]1)C1=CNc2ccccc2N1`, the deltaG in series [10] is -4.89 kcal/mol. `O=C(N[C@@H](Cc1cccc(O)c1)C(=O)O)c1cc(-c2ccccc2)c(=O)n2c1sc1ccc(C3CCCCC3)cc12`: the pEC50 in the series with Zika virus [1] was 6.10; with dengue virus type 2, 5.54.

A word on the pKd: it is the negative decadic logarithm of the Kd, by convention in mol/L. For the molecule `COc1ccc(CC(=O)O)cc1-c1cccs1`, in [11], the pKd was 4.54. The deltaH in the series on dengue virus type 4 [12] is -5.96 kcal/mol. Further, the pIC50 against Nonstructural protein 5 [13] is 3.85; in series [14], 6.84. In the case of `O=C(N[C@@H](Cc1ccc(O)cc1)C(=O)O)c1cc(-c2ccccc2)c(=O)n2c1sc1ccc(OC3CCCCC3)cc12`, on Genome polyprotein, the pIC50 was 5.02.

At Nonstructural protein 5 [15], `COc1ccc(-c2cc(=O)c3c(O)cc(O)c(-c4cc(-c5cc(=O)c6c(O)cc(O)cc6o5)ccc4O)c3o2)cc1` [PODOCARPUSFLAVONE A] gave a pIC50 of […].

`O=C1N/C(=N\c2nnc(-c3ccccc3Cl)s2)S/C1=C\c1cccc(F)c1` showed a pIC50 on Nonstructural protein 5 [16] of 5.68. Also, the pKd at Nonstructural protein 5 [17] is 5.04.

With `O=C(NCCO)c1cc(-c2ccccc2)c(=O)n2c1sc1ccc(C3CCCCC3)cc12`, the results for the pEC50 in the series on Zika virus [1] and with dengue virus type 2 were 5.74 and 5.72, respectively. As to `O=C(NCc1ccc(O)cc1)c1cc(-c2ccccc2)c(=O)n2c1sc1ccc(C3CCCCC3)cc12`, the pEC50 with Zika virus [1] was 6.00; with dengue virus type 2 it was 5.74. For the molecule `CCNC(=O)Cn1cnc(NC(=O)c2cc(-c3ccc(C)cc3)nc3onc(C)c23)n1`, at NS5 [18], the pIC50 is 5.95. In addition, the pEC50 in the series on Zika virus [19] is 5.13. Besides, the deltaG in series [10] was -10.5 kcal/mol.

For the origin of these results see ChEMBL document CHEMBL5150000, “Insights on Dengue and Zika NS5 RNA-dependent RNA polymerase (RdRp) inhibitors” (Eur J Med Chem, 2021).
